Tests used:
Experiment in all cases: relative viability (nuclei count vs DMSO), 5 days (fraction); higher = more cells survive
IMD-0354 + OSI-027 = compound: O=C(Nc1cc(C(F)(F)F)cc(C(F)(F)F)c1)c1cc(Cl)ccc1O [IMD-0354] + COc1cccc2cc(-c3nc([C@H]4CC[C@H](C(=O)O)CC4)n4ncnc(N)c34)[nH]c12 [OSI-027] (partner 0.5 µM)
Method in brief: (§1)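 Relative viability was taken as the ratio of nuclei in treated wells to nuclei in vehicle wells. Lung cancer cell lines in 1536-well plates received compounds by pin tool one day after seeding, either one drug alone or a fixed anchor-drug dose plus five library-drug doses (not always all listed) in √10 steps. Nuclei were counted on 4× images after 5 days of treatment, and values are medians of duplicate plates.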

IMD-0354 + Alpelisib = compound: O=C(Nc1cc(C(F)(F)F)cc(C(F)(F)F)c1)c1cc(Cl)ccc1O [IMD-0354] + Cc1nc(NC(=O)N2CCC[C@H]2C(N)=O)sc1-c1ccnc(C(C)(C)C(F)(F)F)c1 [Alpelisib] (partner 2 µM)
Method in brief: as §1

IMD-0354 + Vorinostat = compound: O=C(Nc1cc(C(F)(F)F)cc(C(F)(F)F)c1)c1cc(Cl)ccc1O [IMD-0354] + O=C(CCCCCCC(=O)Nc1ccccc1)NO [Vorinostat] (partner 1 µM)
Method in brief: as §1

IMD-0354 + Linsitinib = compound: O=C(Nc1cc(C(F)(F)F)cc(C(F)(F)F)c1)c1cc(Cl)ccc1O [IMD-0354] + C[C@]1(O)C[C@@H](c2nc(-c3ccc4ccc(-c5ccccc5)nc4c3)c3c(N)nccn32)C1 [Linsitinib] (partner 1 µM)
Method in brief: as §1

Cell Line: LXF-289
- relative viability (IMD-0354 + OSI-027; first compound 0.04 µM): 0.871
- relative viability (IMD-0354 + OSI-027; first compound 0.1265 µM): 0.772
- relative viability (IMD-0354 + OSI-027; first compound 0.4 µM): 0.492
- relative viability (IMD-0354 + OSI-027; first compound 1.265 µM): 0.34
- relative viability (IMD-0354 + OSI-027; first compound 4 µM): 0.115
- relative viability (IMD-0354 + Alpelisib; first compound 0.04 µM): 1.09
- relative viability (IMD-0354 + Alpelisib; first compound 0.1265 µM): 1.06
- relative viability (IMD-0354 + Alpelisib; first compound 0.4 µM): 0.711
- relative viability (IMD-0354 + Alpelisib; first compound 1.265 µM): 0.265
- relative viability (IMD-0354 + Alpelisib; first compound 4 µM): 0.0502
- relative viability (IMD-0354 + Vorinostat; first compound 0.04 µM): 0.764
- relative viability (IMD-0354 + Vorinostat; first compound 0.1265 µM): 0.735
- relative viability (IMD-0354 + Vorinostat; first compound 0.4 µM): 0.612
- relative viability (IMD-0354 + Vorinostat; first compound 1.265 µM): 0.261
- relative viability (IMD-0354 + Vorinostat; first compound 4 µM): 0.137
- relative viability (IMD-0354 + Linsitinib; first compound 0.04 µM): 1.04
- relative viability (IMD-0354 + Linsitinib; first compound 0.1265 µM): 0.932
- relative viability (IMD-0354 + Linsitinib; first compound 0.4 µM): 0.768
- relative viability (IMD-0354 + Linsitinib; first compound 1.265 µM): 0.459
- relative viability (IMD-0354 + Linsitinib; first compound 4 µM): 0.108

Cell Line: NCI-H2009
- relative viability (IMD-0354 + OSI-027; first compound 0.04 µM): 0.703
- relative viability (IMD-0354 + OSI-027; first compound 0.1265 µM): 0.564
- relative viability (IMD-0354 + OSI-027; first compound 0.4 µM): 0.416
- relative viability (IMD-0354 + OSI-027; first compound 1.265 µM): 0.133
- relative viability (IMD-0354 + OSI-027; first compound 4 µM): 0.109
- relative viability (IMD-0354 + Alpelisib; first compound 0.04 µM): 1.14
- relative viability (IMD-0354 + Alpelisib; first compound 0.1265 µM): 1.03
- relative viability (IMD-0354 + Alpelisib; first compound 0.4 µM): 0.929
- relative viability (IMD-0354 + Alpelisib; first compound 1.265 µM): 0.239
- relative viability (IMD-0354 + Alpelisib; first compound 4 µM): 0.127
- relative viability (IMD-0354 + Vorinostat; first compound 0.04 µM): 0.705
- relative viability (IMD-0354 + Vorinostat; first compound 0.1265 µM): 0.784
- relative viability (IMD-0354 + Vorinostat; first compound 0.4 µM): 0.544
- relative viability (IMD-0354 + Vorinostat; first compound 1.265 µM): 0.253
- relative viability (IMD-0354 + Vorinostat; first compound 4 µM): 0.113
- relative viability (IMD-0354 + Linsitinib; first compound 0.04 µM): 1.16
- relative viability (IMD-0354 + Linsitinib; first compound 0.1265 µM): 1.12
- relative viability (IMD-0354 + Linsitinib; first compound 0.4 µM): 1.02
- relative viability (IMD-0354 + Linsitinib; first compound 1.265 µM): 0.465
- relative viability (IMD-0354 + Linsitinib; first compound 4 µM): 0.139

Cell Line: NCI-H2405
- relative viability (IMD-0354 + OSI-027; first compound 0.04 µM): 0.696
- relative viability (IMD-0354 + OSI-027; first compound 0.1265 µM): 0.601
- relative viability (IMD-0354 + OSI-027; first compound 0.4 µM): 0.552
- relative viability (IMD-0354 + OSI-027; first compound 1.265 µM): 0.312
- relative viability (IMD-0354 + OSI-027; first compound 4 µM): 0.307
- relative viability (IMD-0354 + Alpelisib; first compound 0.04 µM): 0.961
- relative viability (IMD-0354 + Alpelisib; first compound 0.1265 µM): 0.835
- relative viability (IMD-0354 + Alpelisib; first compound 0.4 µM): 0.609
- relative viability (IMD-0354 + Alpelisib; first compound 1.265 µM): 0.306
- relative viability (IMD-0354 + Alpelisib; first compound 4 µM): 0.163
- relative viability (IMD-0354 + Vorinostat; first compound 0.04 µM): 1.24
- relative viability (IMD-0354 + Vorinostat; first compound 0.1265 µM): 0.984
- relative viability (IMD-0354 + Vorinostat; first compound 0.4 µM): 0.706
- relative viability (IMD-0354 + Vorinostat; first compound 1.265 µM): 0.306
- relative viability (IMD-0354 + Vorinostat; first compound 4 µM): 0.335
- relative viability (IMD-0354 + Linsitinib; first compound 0.04 µM): 1.18
- relative viability (IMD-0354 + Linsitinib; first compound 0.1265 µM): 1.06
- relative viability (IMD-0354 + Linsitinib; first compound 0.4 µM): 0.695
- relative viability (IMD-0354 + Linsitinib; first compound 1.265 µM): 0.335
- relative viability (IMD-0354 + Linsitinib; first compound 4 µM): 0.185

Cell Line: NCI-H1755
- relative viability (IMD-0354 + OSI-027; first compound 0.04 µM): 0.65
- relative viability (IMD-0354 + OSI-027; first compound 0.1265 µM): 0.782
- relative viability (IMD-0354 + OSI-027; first compound 0.4 µM): 0.528
- relative viability (IMD-0354 + OSI-027; first compound 1.265 µM): 0.354
- relative viability (IMD-0354 + OSI-027; first compound 4 µM): 0.302
- relative viability (IMD-0354 + Alpelisib; first compound 0.04 µM): 0.964
- relative viability (IMD-0354 + Alpelisib; first compound 0.1265 µM): 0.562
- relative viability (IMD-0354 + Alpelisib; first compound 0.4 µM): 0.43
- relative viability (IMD-0354 + Alpelisib; first compound 1.265 µM): 0.57
- relative viability (IMD-0354 + Alpelisib; first compound 4 µM): 0.222
- relative viability (IMD-0354 + Vorinostat; first compound 0.04 µM): 0.829
- relative viability (IMD-0354 + Vorinostat; first compound 0.1265 µM): 0.781
- relative viability (IMD-0354 + Vorinostat; first compound 0.4 µM): 0.59
- relative viability (IMD-0354 + Vorinostat; first compound 1.265 µM): 0.408
- relative viability (IMD-0354 + Vorinostat; first compound 4 µM): 0.225
- relative viability (IMD-0354 + Linsitinib; first compound 0.04 µM): 0.998
- relative viability (IMD-0354 + Linsitinib; first compound 0.1265 µM): 1.02
- relative viability (IMD-0354 + Linsitinib; first compound 0.4 µM): 0.665
- relative viability (IMD-0354 + Linsitinib; first compound 1.265 µM): 0.666
- relative viability (IMD-0354 + Linsitinib; first compound 4 µM): 0.22

— the supplement of paper PMC10307832
